{
  "source": "patent US20230240290A1",
  "about": "“USE OF (Z)-3-HEXENYL ESTERS AND METHOD FOR PROTECTING PLANTS AGAINST PESTS” (UNIVERSITAT POLITÈCNICA DE VALÈNCIA, priority 2020, published 2023)",
  "key": {"Tetranychus urticae": {"system": "Tetranychus urticae", "assay": "Y-tube olfactometer preference, exposed vs intact tomato plants", "format": "in vivo", "conditions": "plants exposed 24 h vs intact plants", "excerpt": "(§1) It was studied whether the defensive activation achieved by exposure to (Z)-3-hexenyl propanoate could affect repellency and/or attraction in herbivores that attack tomatoes, the whitefly Bemisia tobaci (Gennadius) (Hemiptera: Aleyrodidae), the thrip Frankliniella occidentalis Pergande (Thysanoptera: Thripidae), the red spider Tetranychus urticae Koch (Acari: Tetranychidae) and the tomato borer, Tuta absoluta (Meyrick) (Lepidoptera: Gelechiidae), and in a natural enemy that has been used as a model organism in this crop, the parasitoid Encarsia formosa Gahan (Hymenoptera: Aphelinidae).\n(§2) The last instar nymphs of B. tabaci and the pupae of E. formosa were provided by Koppert Biological Systems, S. L. (Águilas, Murcia, Spain). The recently emerged B. tabaci adults (less than 2 days old) were released into tomato plants inside 60×60×60 cm plastic cages (BugDorm-2) and placed in a climatic chamber at 25±2° C., 65±10% RH and a 14:10 h (L:D) photoperiod in IVIA. Five-day-old B. tabaci adults were used in all the experiments. In the case of E. formosa, the pupae were placed in a Petri dish 9 cm in diameter and allowed to emerge under ambient laboratory conditions (25±2° C.), with a small drop of honey as food. E. formosa females less than two days old were used in all the experiments. F. occidentalis adults came from a brood kept in captivity established in the Valencian Institute of Agrarian Research (Instituto Valenciano de Investigaciones Agrarias, IVIA) in 2010, originally from Campo de Cartagena (Murcia, Spain). The thrips brood was kept in bean pods (Phaseolus vulgaris L.; Fabales: Fabaceae) under the same conditions described above. All the F. occidentalis females used for experimentation were less than five days old. T. urticae adults were obtained from a colony established in IVIA in 2011, which initially came from clementines located in La Plana (Castelló, Spain). The mites were kept on tomato plants in a climatic chamber under the same conditions described above. T. absoluta females were obtained from colonies on tomatoes maintained in a greenhouse at IVIA at 25±4° C., 60±15% RH, and under a natural photoperiod. Newly emerged adult females less than 5 days old were used in all the assays.\n(§3) To assess the preference of F. occidentalis, B. tabaci, T. urticae, T. absoluta and E. formosa for tomato plants that were previously exposed for 24 h to (Z)-3-HP relative to intact plants, a Y-shaped olfactometer was used. The plants were exposed to both volatiles as described above using the pieces of filter paper. The olfactometer (Analytical Research Systems, Gainesville, Fla.) consisted of a 2.4 cm in diameter Y-shaped glass tube with a 13.5 cm long base and two arms, each 5.75 cm long. Both side arms were connected via high-density polyethylene (HDPE) tubing to two identical glass jars (5-liter volume), each of which was connected to an air pump that produced a unidirectional humidified airflow at 150 ml/min (Pérez-Hedo et al. Journal of Pest Science 3: 543-554 (2015)).\n(§4) For each species, a female was individually introduced into the inlet tube of the olfactometer and observed until she had walked at least 3 cm down one of the arms of choice or until 15 minutes had elapsed. A total of 40 valid replicates were recorded for each species for each pair of odor sources. Each individual was tested only once. […] After recording five responses, the Y-tube was rinsed with soapy water, cleaned with acetone, and allowed to dry for 5 minutes. […]"}, "[1]": {"system": "Frankliniella occidentalis", "assay": "Y-tube olfactometer preference, exposed vs intact tomato plants", "format": "in vivo", "conditions": "plants exposed 24 h vs intact plants", "excerpt": "as §1, §2, §3, §4"}, "Bemisia tabaci": {"system": "Bemisia tabaci", "assay": "Y-tube olfactometer preference, exposed vs intact tomato plants", "format": "in vivo", "conditions": "plants exposed 24 h vs intact plants", "excerpt": "as §1, §2, §3, §4"}, "Encarsia formosa": {"system": "Encarsia formosa", "assay": "Y-tube olfactometer preference, exposed vs intact tomato plants", "format": "in vivo", "conditions": "plants exposed 24 h vs intact plants", "excerpt": "as §1, §2, §3, §4"}, "Tuta absoluta": {"system": "Tuta absoluta", "assay": "Y-tube olfactometer preference, exposed vs intact tomato plants", "format": "in vivo", "conditions": "plants exposed 24 h vs intact plants", "excerpt": "as §1, §2, §3, §4"}, "[2]": {"assay": "Emission kinetics of the dispenser (gravimetric method)", "format": "physicochemical", "conditions": "4-mL LD polyethylene vial loaded with 4 ml, field conditions; slope of the fitted model", "description": "Two different types of polymeric emitters were used to test the activation level that different emission levels of (Z)-3-hexenyl propionate can provide: 4-mL low-density (LD) polyethylene vial and 4-mL high-density (HD) polyethylene vial. The highest emission level (5 mg/day) was achieved through previous laboratory studies with LD dispensers loaded with 20 mg of the pure substance. The lowest emission level (0.01 mg/day) was provided by HD vials loaded with a 1:100 mixture of (Z)-3-hexenyl propionate and paraffinic oil (0.02:2; g:g). The emission kinetics of the emitters used during the experiments was controlled by studying weight loss (gravimetric method). Additional dispensers were placed in the same environmental conditions, measuring their weight weekly with a precision scale (0.0001 g). The difference in weight recorded in each period will be the emitted quantity of the substance for each type of dispenser. To obtain the mean emission level of each dispenser, the recorded weights (y) are related to the aging time (x) using a multiple regression analysis.\nAs mentioned earlier, 2 zones were selected in each of the greenhouses in which, on 22 Feb. 2019, a dispenser (4-ml low-density (LD) polyethylene vial) loaded with 4 ml of (Z)-3-hexenyl was hung every 20 m^2 in one of them, and the other with the same surface area was used as a control treatment. […]"}},
  "note": "“Also recorded” adds a separate entry of the source.",
  "data": [
    {"compound": "CC/C=C\\CCOC(=O)CC", "note": "[(Z)-3-hexenyl propanoate]", "values": [
      {"measurement": "Response of T. urticae females to exposed tomato plants", "setting": "Tetranychus urticae", "result": "no preference"},
      {"measurement": "Response of F. occidentalis females to exposed tomato plants", "setting": "[1]", "result": "repel; also recorded: repellent"},
      {"measurement": "Response of B. tabaci females to exposed tomato plants", "setting": "Bemisia tabaci", "result": "repel; also recorded: repellent"},
      {"measurement": "Response of E. formosa females to exposed tomato plants", "setting": "Encarsia formosa", "result": "more attractive"},
      {"measurement": "Response of T. absoluta females to exposed tomato plants", "setting": "Tuta absoluta", "result": "repel; also recorded: repellent"},
      {"measurement": "Mean emission rate from the dispenser", "setting": "[2]", "result": 12.2, "unit": "mg/day"}
    ]}
  ]
}
